Measurements taken from patent US4074049A, “Antithrombotic 1,3,4-thiadiazole” (The Dow Chemical Company, priority 1976, dated 1978).
Where two headings read alike, the source gives them in different places. Blank lines part the entries; values can stand above or below the molecule they belong to.

What was measured:
[1] = test system: ADP induced platelet aggregation; test: In vivo platelet aggregation measurement, filter occlusion technique (Broersma et al.); parameters: species or system beagle dogs; conditions: 20 mg/kg, intravenous, after 4 hours
Description: Measurement of platelet aggregation in vivo was carried out using the technique described by Broersma, et al., Thomb. diath. Haemorrhag. 29, 201 (1973). Such determinations are based upon the measurement of the blood pressure proximal to a filter with 53 micron openings through which arterial blood flows. Platelet aggregation partially obstructs the filter with time causing a change in the pressure which is proportional to the degree of platelet aggregation (thrombosis).
Fasted male beagle dogs were anesthetized with sodium pentobarbital (35 mg/kg), heparinized (16.5 μ/kg, i.v.) and tested for platelet function using aggregometry. Compounds were administered intravenously in solutions having the pH adjusted to 7.4. The solution was infused at a rate of 15.3 ml/min to total volume of 5 ml/kg of body weight. Thrombus formation was observed using the filter occlusion technique outlined above. Platelet count, hematocrit, blood pressure, and heart rate were also measured.

[2] = test system: ADP-induced platelet aggregation; test: In vitro inhibition of ADP-induced platelet aggregation (Born technique, optical density, platelet rich plasma); type: cell-based, rat
Description: Rat blood was collected into 3.0 percent trisodium citrate solution (1:10) by cardiac puncture undeer methoxyflurane anesthesia. The blood was centrifuged at 120 g for 10 minutes at room temperature and the supernatant platelet rich plasma was removed and diluted with lactated Ringer's solution containing the […] aggregation inhibiting agent (1.0:1.5). Samples of 1.0 ml were pipetted into plastic test tubes and incubated for three minutes. Plastic equipment was used for all procedures. The concentration of the thiadiazole compound in micromoles inhibiting ADP aggregation by 50 percent (IC50) was determined using changes in optical density as a indicium of platelet aggregation.

tobacco black shank = test: Control of tobacco black shank, soil drench; type: in vivo
[3] = test system: ADP-induced emboli / platelet aggregation; test: Protection of mice from ADP challenge (inclined screen test); type: in vivo; conditions: 60 mg/kg i.p.; ten mice; ADP i.v. one hour after compound
Description: Emboli formed in the vascular system of mice in response to the administration of ADP cause a stroke-like response that prevents mice from staying on an inclined screen. To illustrate the platelet aggregation inhibition effect of the 1,3,4-thiadiazoles, ten mice were dosed by intraperitoneal injection with 60 mgs per kilogram of body weight of the compound 2,5-bis(2-(diethylamino)ethylthio)-1,3,4-thiadiazole di-p-toluenesulfonic acid salt (Example 3). One hour after compound administration, the mice were challenged with ADP (0.05 M mole/kg) by injection via the tail vein and placed on an inclined screen. Unprotected control mice not injected with thiadiazole were unable to maintain their position on the screen when given a similar injection of ADP.

Compound: C1CN(CCSc2nnc(SCCN3CCOCC3)s2)CCO1 [2,5-bis-(2-(4-morpholinyl)ethylthio)-1,3,4-thiadiazole]
reduction of ADP induced platelet aggregation in the dog [1]: 36%

Compound: CC(=O)Oc1ccccc1C(=O)O [Aspirin, reference compound]
IC50 ([2]; Rattus norvegicus, Platelet, read-out: IC50 ADPmax): 12.8 µM | IC50 ([2]; Rattus norvegicus, Platelet, read-out: IC50 ADPslope): 18.1 µM

IC50 ([2]; inhibits maximum ADP-induced platelet aggregation by 50%, rat platelet rich plasma, read-out: IC50 ADPmax): 6.28 µM | IC50 ([2]; inhibits the speed of the platelet aggregation by 50%, rat platelet rich plasma, read-out: IC50 ADPslope): 9.41 µM
Compound: C(CSc1nnc(SCCCN2CCOCC2)s1)CN1CCOCC1 [Example 1, 2,5-bis(3-(4-morpholinyl)-propylthio)-1,3,4-thiadiazole]
activity relative to aspirin in the inhibition of ADP induced platelet aggregation ([2]; compared with aspirin, conditions of this test): about twice as active as aspirin

Compound: CCN(CC)CCSc1nnc(N)s1 [Example 2, 2-amino-5-(2-(diethylamino)ethylthio)-1,3,4-thiadiazole]
control and killing of tobacco black shank (in words) (tobacco black shank): effective in the control and killing of tobacco black shank | control of the disease (tobacco black shank) (tobacco black shank; solution of 25 ppm): 100%

Compound: CCN(CC)CCSc1nnc(SCCN(CC)CC)s1.Cc1ccc(S(=O)(=O)O)cc1.Cc1ccc(S(=O)(=O)O)cc1 [Example 3, 2,5-bis(2-(diethylamino)ethylthio)-1,3,4-thiadiazole di-p-toluenesulfonic acid salt]
mice protected from ADP challenge and able to remain on the screen [3]: 40%
